# Where a name gives a salt, the structure may show the parent alone. Read-outs that look alike come from different tables or passages of the source.
# System: PRKACA-PRKAR2A interaction (SmBiT-PRKACA / LgBiT-PRKAR2A), protein kinase A
# Parameters: NanoLuc complementation counter-screen in cell extract, PRKACA with PRKAR2A, loss of luminescence, detects NanoLuc interference
# Conditions: counter-screen for NanoLuc interference, 0.5 h, 20 µM, inhibitor
SMILES,Inh (PKA) (Inh (PKA)),Inh (PKA)
"CCOC(=O)[C@@H](N)CCC(=O)N[C@@H](CSCc1ccccc1)C(=O)N[C@@H](C(=O)OCC)c1ccccc1 [UM0141959:01, Ezatiostat]",2.198%,
"N#Cc1c(Oc2ccc(F)c(NC(=O)Cc3cccc(C(F)(F)F)c3)c2)ccc2nc(NC(=O)C3CC3)sc12 [UM0141960:01, TAK-632]",,4.577%
"CC(=O)[C@]1(N)Cc2c(O)c3c(c(O)c2[C@@H](O[C@H]2C[C@H](O)[C@H](O)CO2)C1)C(=O)c1ccccc1C3=O [UM0141961:01, Amrubicin]",,25.46%
"c1ccc2c(Oc3nc(Nc4ccc(N5CCOCC5)cc4)c4ncn(C5CCCCC5)c4n3)cccc2c1 [UM0141962:01, Purmorphamine]",,11.44%
"CCCC(=O)Nc1cccc(NC(=O)c2ccccc2Br)c1 [UM0141963:01, ML161]",,3.147%
"Cc1ccc2c(=O)c3cccc(CC(=O)O)c3oc2c1C [UM0141964:01, DMXAA (Vadimezan)]",,2.691%
"CNC(=O)c1cc(Oc2ccc(NC(=O)c3cccc(C(F)(F)F)c3)cc2)ccn1 [UM0141965:01, SKLB610]",,8.796%
"CCO[C@@H]1OC(=O)C[C@@H]1NC(=O)[C@@H]1CCCN1C(=O)[C@@H](NC(=O)c1ccc(N)c(Cl)c1)C(C)(C)C [UM0141966:01, VX-765]",,0.4442%
"CCCNC(=O)[C@H]1O[C@@H]1C(=O)N[C@H](C(=O)N1CCC[C@H]1C(=O)OC)[C@@H](C)CC [UM0141967:01, CA-074 Me]",,-0.4464%
"FC(F)c1nc2ccccc2n1-c1nc(N2CCOCC2)nc(N2CCOCC2)n1 [UM0141969:01, ZSTK474]",,3.548%
"NC(=O)c1ccc(-c2nc(-c3ccccn3)c(-c3ccc4c(c3)OCO4)[nH]2)cc1 [UM0141970:01, SB 431542]",,22.36%
"COc1cc(N2CCC(N3CCN(C)CC3)CC2)ccc1Nc1ncc(Cl)c(Nc2ccccc2S(=O)(=O)C(C)C)n1 [UM0141971:01, TAE684 (NVP-TAE684)]",,23%
"COC(=O)c1ccc2c(c1)NC(=O)/C2=C(\Nc1ccc(N(C)C(=O)CN2CCN(C)CC2)cc1)c1ccccc1 [UM0141972:01, Nintedanib (BIBF 1120)]",,17.71%
"CCN(CC)CCNC(=O)c1c(C)[nH]c(/C=C2\C(=O)Nc3ccc(F)cc32)c1C [UM0141973:01, Sunitinib malate]",,55.62%
"Cc1cc(C)nc(NS(=O)(=O)c2ccc(NC(=S)NC(=O)COc3ccc(Br)cc3Cl)cc2)n1 [UM0141974:01, ZCL278]",,9.562%
"CN(C)CCCCC(=O)Nc1ccc(NC(=S)NC(=O)c2ccc(C(C)(C)C)cc2)cc1 [UM0141976:01, Tenovin-6]",,9.354%
"Cc1ccc(NC(=O)Nc2cc(C(F)(F)F)ccc2F)cc1Nc1ccc2c(c1)NC(=O)/C2=C\c1ccc[nH]1 [UM0141977:01, GNF-5837]",,11.58%
"CNC(=O)c1ccc(C)c(-n2c(C)cc(OCc3ccc(F)cc3F)c(Br)c2=O)c1 [UM0141978:01, PH-797804]",,5.099%
"CN(c1ncccc1CNc1nc(Nc2ccc3c(c2)CC(=O)N3)ncc1C(F)(F)F)S(C)(=O)=O [UM0141980:01, PF-562271]",55.16%,
"CCC(=O)N1CCN(c2ccc(-n3c(=O)ccc4cnc5ccc(-c6cnc7ccccc7c6)cc5c43)cc2C(F)(F)F)CC1 [UM0141981:01, Torin 1]",,8.063%
"Cn1c(Nc2ccc(C(F)(F)F)cc2)nc2cc(Oc3ccnc(-c4ncc(C(F)(F)F)[nH]4)c3)ccc21 [UM0141982:01, RAF265]",,1.298%

SMILES,Inh (PKA) (Inh (PKA)),Inh (PKA)
"CC(=O)c1c(C)c2cnc(Nc3ccc(N4CCNCC4)cn3)nc2n(C2CCCC2)c1=O [UM0141983:01, PD 0332991 (Palbociclib) HCl]",11.32%,
"COc1cc2ncnc(Nc3ccc(F)c(Cl)c3)c2cc1NC(=O)/C=C/CN1CCCCC1 [UM0141985:01, Dacomitinib (PF299804, PF299)]",,10.53%
"CN(c1ncccc1CNc1nc(Nc2ccc3c(c2)CC(=O)N3)ncc1C(F)(F)F)S(C)(=O)=O [UM0141986:01, PF-00562271]",56.79%,
"CCOc1cc2ncc(C#N)c(Nc3ccc(OCc4ccccn4)c(Cl)c3)c2cc1NC(=O)/C=C/CN(C)C [UM0141987:01, Neratinib (HKI-272)]",,9.342%
"CCC[C@H](NC(=O)/C(C#N)=C/c1cccc(Br)n1)c1ccccc1 [UM0141988:01, WP1130]",,8.904%
"c1ccc2c(-c3cnn4cc(-c5ccc(N6CCNCC6)cc5)cnc34)ccnc2c1 [UM0141989:01, LDN-193189]",1.838%,
"O=C1NC(=O)[C@@H](c2cn3c4c(cccc24)CCC3)[C@@H]1c1c[nH]c2ccccc12 [UM0141990:01, Tivantinib (ARQ 197)]",,34.28%
"Cc1ncc(-c2ccnc(Nc3ccc(S(C)(=O)=O)cc3)n2)n1C(C)C [UM0141991:01, AZD-5438]",,13.33%
"Cc1cc(Nc2ncc(Cl)c(Nc3ccccc3S(=O)(=O)C(C)C)n2)c(OC(C)C)cc1C1CCNCC1 [UM0141993:01, LDK378]",,11.01%
"Nc1nc(Nc2ccc3c(c2)CCC(N2CCCC2)CC3)nn1-c1cc2c(nn1)-c1ccccc1CCC2 (stereo not shown) [UM0141994:01, R428]",,28.03%
"O=C(O)c1ccc2c(c1)nc(Nc1cccc(Cl)c1)c1ccncc12 [UM0141995:01, CX-4945 (Silmitasertib)]",,36.81%
"COc1cc(Nc2ncc(F)c(Nc3ccc4c(n3)N(COP(=O)(O)O)C(=O)C(C)(C)O4)n2)cc(OC)c1OC [UM0141996:01, R788 disodium]",11.53%,
"Cc1ccc([C@@H]2O[C@H](CO)[C@@H](O)[C@H](O)[C@H]2O)cc1Cc1ccc(-c2ccc(F)cc2)s1 [UM0141997:01, Canagliflozin]",,13.33%
"C[C@]1(O)C[C@@H](c2nc(-c3ccc4ccc(-c5ccccc5)nc4c3)c3c(N)nccn32)C1 [UM0141998:01, Linsitinib]",,15.97%
"CC(=O)c1c(C)c2cnc(Nc3ccc(N4CCNCC4)cn3)nc2n(C2CCCC2)c1=O [UM0141999:01, Palbociclib (PD0332991) Isethionate]",9.751%,
"C[C@@H]1CN(CC(=O)Nc2ccc3c(c2)Cc2cccc(-c4cc(=O)cc(N5CCOCC5)o4)c2S3)C[C@H](C)O1 [UM0142000:01, KU-60019]",,8.664%
"Cc1cnc(CNC(=O)c2c(=O)c3ccc(N4CCCN(C)CC4)nc3n3c2sc2ccccc23)cn1 [UM0142001:01, CX-5461]",,4.891%
"Cc1ccc(S(=O)(=O)OCC(=O)Nc2ccc(C(=O)O)c(O)c2)cc1 [UM0142002:01, NSC 74859]",,1.866%
"CN(c1ncccc1CNc1nc(Nc2ccc3c(c2)CC(=O)N3)ncc1C(F)(F)F)S(C)(=O)=O [UM0142004:01, PF-562271 HCl]",48.82%,
"Cc1nc(NC(=O)N2CCC[C@H]2C(N)=O)sc1-c1ccnc(C(C)(C)C(F)(F)F)c1 [UM0142005:01, BYL-719]",,2.69%
"Cc1ccc(Nc2nccc(N(C)c3ccc4c(C)n(C)nc4c3)n2)cc1S(N)(=O)=O [UM0142006:01, Pazopanib Hydrochloride]",14.36%,

SMILES,Inh (PKA) (Inh (PKA)),Inh (PKA)
"Cc1cccc(-c2nn3c(c2-c2ccnc4ccc(C(N)=O)cc24)CCC3)n1 [UM0142007:01, LY2157299]",,1.976%
"COC(=O)N1CCN(Cc2cccc(NC(=O)Nc3ccc(C)nc3)c2F)CC1 [UM0142008:01, Omecamtiv mecarbil]",,3.022%
"COc1cc(CCc2cc(NC(=O)c3ccc(N4C[C@@H](C)N[C@@H](C)C4)cc3)n[nH]2)cc(OC)c1 [UM0142009:01, AZD4547]",,12.3%
"Cc1ccc(NC(=O)C2(c3ccc4c(c3)OC(F)(F)O4)CC2)nc1-c1cccc(C(=O)O)c1 [UM0142010:01, VX-809]",,21.09%
"Cn1cnc(N)c2ncnc1-2 [UM0142011:01, 3-Methyladenine]",,0.4537%
"Oc1ncnc2[nH]ncc12 [UM0142014:01, Allopurinol]",,-0.9072%
"CC1CNc2c(cccc2S(=O)(=O)N[C@@H](CCCNC(=N)N)C(=O)N2CC[C@@H](C)C[C@@H]2C(=O)O)C1 (stereo partly shown) [UM0142015:01, Argatroban]",,1.414%
"CNC(=O)c1ccc(N2C(=S)N(c3cnc(C#N)c(C(F)(F)F)c3)C(=O)C23CCC3)cc1F [UM0142016:01, ARN-509]",,2.375%
"C=CC(=O)Nc1ccc2ncnc(Nc3ccc(OCc4cccc(F)c4)c(Cl)c3)c2c1 [UM0142018:01, AST-1306]",,12.53%
"CNC(=O)c1cccc(-c2ccc3c(N4CCOC[C@@H]4C)nc(N4CCOC[C@@H]4C)nc3n2)c1 [UM0142021:01, AZD2014]",,7.565%
"CNC(=O)CN1CCC(Oc2cc3c(Nc4cccc(Cl)c4F)ncnc3cc2OC)CC1 [UM0142022:01, AZD8931 (Sapitinib)]",,6.017%
"CCCCCCOC(=O)NC(=N)c1ccc(NCc2nc3cc(C(=O)N(CCC(=O)OCC)c4ccccn4)ccc3n2C)cc1 [UM0142023:01, BIBR-1048]",4.293%,
"CCCCOc1c(C(=O)c2c(F)cc(C)cc2F)c[nH]c2nncc1-2 [UM0142024:01, BMS265246]",,6.004%
"O=c1[nH]c2ccc(Cl)cc2c(N[C@@H]2CN3CCC2CC3)c1-c1nc2ccccc2[nH]1 [UM0142025:01, CHIR-124]",,30.1%
"Nc1nc(NCCNc2ncc(-n3ccnc3)c(-c3ccc(Cl)cc3Cl)n2)ccc1[N+](=O)[O-] [UM0142026:01, CHIR-98014]",,80.31%
"CN(C)C(=O)[C@H](O)[C@H](Cc1ccccc1)NC(=O)c1cc2cc(Cl)ccc2[nH]1 [UM0142029:01, CP-91149]",,53.3%
"O=c1[nH]cnc2c1ncn2[C@H]1CC[C@@H](CO)O1 [UM0142031:01, Didanosine]",,-1.093%
"CCc1cnn2c(NCc3ccc[n+]([O-])c3)cc(N3CCCC[C@H]3CCO)nc12 [UM0142032:01, Dinaciclib (SCH727965)]",,1.224%
"CN(CCOc1ccc(NS(C)(=O)=O)cc1)CCc1ccc(NS(C)(=O)=O)cc1 [UM0142033:01, Dofetilide]",,-0.1542%

# Reference: publication PMC9995496, “A screen for MeCP2-TBL1 interaction inhibitors using a luminescence-based assay” (Scientific Reports, 2023)
